The results in this text go back to patent US9458137B2, “Substituted indol-5-ol derivatives and their therapeutical applications” (NantBioScience, Inc., priority 2012, dated 2016).

Common to all, as to experiment: Kinase panel activity
Type in all cases: biochemical
Holding throughout (conditions): 0.1 μM, ATP Km

One assay concerns the target Haspin(h) (Homo sapiens, UniProt Q8TF76). The protocol:
(§1) The effect of NTW-3475 on kinase activity was tested for a wide range of kinases and is shown in Table 2: Summary Sheet, Activity % ATP Concentration: Km

The target in another assay is CK2α2(h) (Homo sapiens, UniProt P19784). On the procedure:
as §1

For another assay, the target named is CDK2/cyclinA(h) (Homo sapiens, UniProt P24941). On the procedure:
as §1

For a further assay, the target named is T1, Src(1-530)(h) (Homo sapiens, UniProt P12931).
T1 construct: Src(1-530)(h); purchased Millipore (KinaseProfiler service)
The protocol: as §1

A further assay has as its target IRAK1(h) (Homo sapiens, UniProt P51617). The protocol: as §1
A further assay has as its target T2, MSK2(h) (Homo sapiens, UniProt O75676).
T2 construct: purchased Millipore (KinaseProfiler service)
On the procedure:
as §1

A further assay addresses T3, Met(M1268T)(h) (Homo sapiens, UniProt P08581, M1250T).
T3 construct: purchased Millipore (KinaseProfiler service)
The protocol:
as §1

The next assay deals with GRK7(h) (Homo sapiens, UniProt Q8WTQ7). On the procedure: as §1
Another assay deals with CLK2(h) (Homo sapiens, UniProt P49760). On the procedure:
as §1

A further assay has as its target PASK(h) (Homo sapiens, UniProt Q96RG2). The protocol: as §1
The target in the next assay is NEK3(h) (Homo sapiens, UniProt P51956). The protocol:
as §1

A further assay concerns the target MAPK1(h) (Homo sapiens, UniProt P27361). The protocol: as §1
A further assay concerns the target PKCα(h) (Homo sapiens, UniProt P17252). The protocol: as §1
The next assay addresses T4, EphB1(h) (Homo sapiens, UniProt P54762).
T4 construct: purchased Millipore (KinaseProfiler service)
On the procedure: as §1

A further assay addresses CK1δ(h) (Homo sapiens, UniProt P48730). The protocol: as §1
A further assay concerns the target BRK(h) (Homo sapiens, UniProt Q13882). On the procedure:
as §1

For a further assay, the target named is PDK1(h) (Homo sapiens, UniProt O15530). The protocol:
as §1

The target in another assay is DAPK2(h) (Homo sapiens, UniProt Q9UIK4). The protocol:
as §1

The next assay addresses NLK(h) (Homo sapiens, UniProt Q9UBE8). The protocol: as §1
Another assay deals with PKG1α(h) (Homo sapiens, UniProt Q13976). The protocol: as §1
For a further assay, the target named is CHK2(R145W)(h) (Homo sapiens, UniProt O96017, R145W). On the procedure:
as §1

A further assay deals with Ab1(H396P)(h) (Homo sapiens, UniProt P00519, H396P). The protocol: as §1
Another assay concerns the target T5, Met(D1246N)(h) (Homo sapiens, UniProt P08581, D1228N).
T5 construct: purchased Millipore (KinaseProfiler service)
On the procedure: as §1

BRK(h), sequence (Q13882 whole entry): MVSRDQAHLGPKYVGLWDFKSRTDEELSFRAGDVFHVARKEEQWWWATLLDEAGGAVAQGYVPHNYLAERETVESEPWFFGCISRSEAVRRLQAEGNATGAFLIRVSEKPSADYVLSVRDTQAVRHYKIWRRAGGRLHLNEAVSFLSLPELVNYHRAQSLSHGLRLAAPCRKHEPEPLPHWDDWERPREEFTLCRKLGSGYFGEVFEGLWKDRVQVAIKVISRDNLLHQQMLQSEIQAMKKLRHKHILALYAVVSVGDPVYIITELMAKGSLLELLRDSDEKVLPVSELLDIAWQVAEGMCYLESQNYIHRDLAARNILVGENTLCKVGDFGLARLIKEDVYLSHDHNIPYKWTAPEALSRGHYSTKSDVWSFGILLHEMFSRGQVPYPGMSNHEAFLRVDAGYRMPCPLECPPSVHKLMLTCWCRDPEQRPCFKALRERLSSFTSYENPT
Haspin(h), sequence (Q8TF76 whole entry): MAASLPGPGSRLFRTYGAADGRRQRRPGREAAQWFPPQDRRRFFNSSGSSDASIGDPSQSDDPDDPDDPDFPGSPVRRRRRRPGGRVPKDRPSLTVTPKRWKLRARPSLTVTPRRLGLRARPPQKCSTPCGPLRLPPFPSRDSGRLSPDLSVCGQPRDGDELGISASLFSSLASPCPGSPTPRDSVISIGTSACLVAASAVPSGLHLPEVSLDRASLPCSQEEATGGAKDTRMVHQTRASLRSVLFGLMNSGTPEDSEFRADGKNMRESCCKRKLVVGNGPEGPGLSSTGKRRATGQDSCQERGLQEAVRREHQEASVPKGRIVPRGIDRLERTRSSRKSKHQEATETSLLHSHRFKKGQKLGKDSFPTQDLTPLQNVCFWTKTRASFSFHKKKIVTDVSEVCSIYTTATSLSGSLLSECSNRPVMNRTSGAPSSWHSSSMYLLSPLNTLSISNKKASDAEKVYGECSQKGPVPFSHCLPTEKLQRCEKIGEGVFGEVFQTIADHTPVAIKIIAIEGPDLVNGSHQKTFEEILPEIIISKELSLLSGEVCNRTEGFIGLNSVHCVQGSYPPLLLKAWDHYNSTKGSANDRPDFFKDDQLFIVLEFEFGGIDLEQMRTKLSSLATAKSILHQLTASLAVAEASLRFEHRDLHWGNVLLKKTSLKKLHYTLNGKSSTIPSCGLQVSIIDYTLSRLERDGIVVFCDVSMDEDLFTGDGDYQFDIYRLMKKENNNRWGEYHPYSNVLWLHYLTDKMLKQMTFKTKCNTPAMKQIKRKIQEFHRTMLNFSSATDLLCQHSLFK
T2 sequence (O75676 whole entry): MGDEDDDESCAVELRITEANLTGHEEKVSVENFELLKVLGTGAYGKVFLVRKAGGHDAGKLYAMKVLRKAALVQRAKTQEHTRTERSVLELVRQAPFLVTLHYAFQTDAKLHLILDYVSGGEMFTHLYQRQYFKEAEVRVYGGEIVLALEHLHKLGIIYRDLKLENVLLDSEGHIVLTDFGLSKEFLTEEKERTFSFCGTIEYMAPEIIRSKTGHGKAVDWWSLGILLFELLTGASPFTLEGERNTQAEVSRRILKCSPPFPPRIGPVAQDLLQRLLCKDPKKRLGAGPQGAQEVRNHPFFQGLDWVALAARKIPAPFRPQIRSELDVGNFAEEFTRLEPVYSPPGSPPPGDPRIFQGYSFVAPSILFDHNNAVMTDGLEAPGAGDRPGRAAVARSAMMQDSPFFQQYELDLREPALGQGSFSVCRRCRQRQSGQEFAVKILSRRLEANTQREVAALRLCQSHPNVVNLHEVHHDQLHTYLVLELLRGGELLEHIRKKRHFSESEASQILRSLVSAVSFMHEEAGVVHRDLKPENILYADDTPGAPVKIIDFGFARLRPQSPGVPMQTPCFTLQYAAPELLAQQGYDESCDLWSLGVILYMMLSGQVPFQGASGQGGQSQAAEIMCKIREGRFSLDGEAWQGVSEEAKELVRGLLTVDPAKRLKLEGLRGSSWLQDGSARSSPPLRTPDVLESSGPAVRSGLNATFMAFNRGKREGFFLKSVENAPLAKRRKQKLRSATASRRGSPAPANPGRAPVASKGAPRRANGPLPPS
IRAK1(h), sequence (P51617 whole entry): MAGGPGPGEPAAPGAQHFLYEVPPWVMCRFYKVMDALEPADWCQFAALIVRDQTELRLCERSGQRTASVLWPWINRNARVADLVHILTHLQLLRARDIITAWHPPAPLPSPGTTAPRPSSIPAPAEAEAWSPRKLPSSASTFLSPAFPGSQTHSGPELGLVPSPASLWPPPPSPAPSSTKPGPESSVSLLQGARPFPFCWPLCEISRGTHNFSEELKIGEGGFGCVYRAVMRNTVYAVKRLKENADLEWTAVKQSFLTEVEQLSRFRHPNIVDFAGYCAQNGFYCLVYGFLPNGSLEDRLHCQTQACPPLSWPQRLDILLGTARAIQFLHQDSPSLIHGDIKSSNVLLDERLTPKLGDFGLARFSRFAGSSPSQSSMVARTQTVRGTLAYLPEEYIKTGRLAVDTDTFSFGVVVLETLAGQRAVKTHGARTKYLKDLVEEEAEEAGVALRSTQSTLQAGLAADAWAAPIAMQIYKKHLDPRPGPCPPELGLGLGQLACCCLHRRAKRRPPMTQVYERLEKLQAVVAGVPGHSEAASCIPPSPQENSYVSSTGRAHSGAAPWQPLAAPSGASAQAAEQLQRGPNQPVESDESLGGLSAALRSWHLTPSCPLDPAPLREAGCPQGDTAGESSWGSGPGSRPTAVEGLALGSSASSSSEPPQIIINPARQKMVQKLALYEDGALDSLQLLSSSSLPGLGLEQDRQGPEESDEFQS
MAPK1(h), sequence (P27361 whole entry): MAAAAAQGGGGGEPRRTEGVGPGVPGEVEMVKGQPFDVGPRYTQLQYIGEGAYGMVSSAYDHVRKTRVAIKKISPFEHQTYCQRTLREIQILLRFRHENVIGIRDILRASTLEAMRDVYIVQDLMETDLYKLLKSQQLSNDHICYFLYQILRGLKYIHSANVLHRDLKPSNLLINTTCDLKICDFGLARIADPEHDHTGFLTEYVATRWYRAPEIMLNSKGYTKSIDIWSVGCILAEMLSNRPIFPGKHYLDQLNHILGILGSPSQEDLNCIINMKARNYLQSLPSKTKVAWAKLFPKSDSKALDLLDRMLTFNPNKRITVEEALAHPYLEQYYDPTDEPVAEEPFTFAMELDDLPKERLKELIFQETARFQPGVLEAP
PASK(h), sequence (Q96RG2 whole entry): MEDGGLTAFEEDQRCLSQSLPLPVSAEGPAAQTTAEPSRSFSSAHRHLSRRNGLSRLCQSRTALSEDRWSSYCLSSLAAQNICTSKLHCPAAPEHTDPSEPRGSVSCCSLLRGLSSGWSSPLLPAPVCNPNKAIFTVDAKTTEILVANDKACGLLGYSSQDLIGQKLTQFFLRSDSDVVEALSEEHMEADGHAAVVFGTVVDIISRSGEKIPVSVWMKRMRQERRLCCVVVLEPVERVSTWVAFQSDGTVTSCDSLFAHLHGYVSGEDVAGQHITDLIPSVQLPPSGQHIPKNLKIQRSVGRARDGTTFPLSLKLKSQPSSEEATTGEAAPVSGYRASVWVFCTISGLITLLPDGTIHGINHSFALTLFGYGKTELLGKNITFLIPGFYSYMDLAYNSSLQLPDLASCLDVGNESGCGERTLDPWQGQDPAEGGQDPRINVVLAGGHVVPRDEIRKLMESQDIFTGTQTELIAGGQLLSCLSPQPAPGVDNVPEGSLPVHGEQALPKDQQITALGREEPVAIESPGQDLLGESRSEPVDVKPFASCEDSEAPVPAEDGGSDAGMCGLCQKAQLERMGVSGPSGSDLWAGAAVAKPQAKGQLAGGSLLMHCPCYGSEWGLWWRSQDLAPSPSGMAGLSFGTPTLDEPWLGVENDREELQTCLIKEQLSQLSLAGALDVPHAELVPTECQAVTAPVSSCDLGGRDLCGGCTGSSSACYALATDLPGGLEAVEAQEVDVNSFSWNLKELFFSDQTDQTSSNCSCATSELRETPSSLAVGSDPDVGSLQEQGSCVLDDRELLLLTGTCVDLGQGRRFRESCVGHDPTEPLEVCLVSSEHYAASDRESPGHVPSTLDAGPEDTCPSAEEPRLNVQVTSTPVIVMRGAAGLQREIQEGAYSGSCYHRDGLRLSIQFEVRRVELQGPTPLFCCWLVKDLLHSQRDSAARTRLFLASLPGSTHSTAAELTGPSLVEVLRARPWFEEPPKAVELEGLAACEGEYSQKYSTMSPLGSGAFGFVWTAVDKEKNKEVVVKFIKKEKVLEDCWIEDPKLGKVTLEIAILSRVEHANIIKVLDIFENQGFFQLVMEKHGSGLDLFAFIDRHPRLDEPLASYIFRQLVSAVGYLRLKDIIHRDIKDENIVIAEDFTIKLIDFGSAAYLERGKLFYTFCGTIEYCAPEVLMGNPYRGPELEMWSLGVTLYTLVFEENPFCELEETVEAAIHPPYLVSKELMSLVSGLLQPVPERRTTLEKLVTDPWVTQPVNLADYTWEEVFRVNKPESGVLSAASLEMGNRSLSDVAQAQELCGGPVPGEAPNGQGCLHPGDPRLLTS
CHK2(R145W)(h), sequence (O96017 whole entry R145W): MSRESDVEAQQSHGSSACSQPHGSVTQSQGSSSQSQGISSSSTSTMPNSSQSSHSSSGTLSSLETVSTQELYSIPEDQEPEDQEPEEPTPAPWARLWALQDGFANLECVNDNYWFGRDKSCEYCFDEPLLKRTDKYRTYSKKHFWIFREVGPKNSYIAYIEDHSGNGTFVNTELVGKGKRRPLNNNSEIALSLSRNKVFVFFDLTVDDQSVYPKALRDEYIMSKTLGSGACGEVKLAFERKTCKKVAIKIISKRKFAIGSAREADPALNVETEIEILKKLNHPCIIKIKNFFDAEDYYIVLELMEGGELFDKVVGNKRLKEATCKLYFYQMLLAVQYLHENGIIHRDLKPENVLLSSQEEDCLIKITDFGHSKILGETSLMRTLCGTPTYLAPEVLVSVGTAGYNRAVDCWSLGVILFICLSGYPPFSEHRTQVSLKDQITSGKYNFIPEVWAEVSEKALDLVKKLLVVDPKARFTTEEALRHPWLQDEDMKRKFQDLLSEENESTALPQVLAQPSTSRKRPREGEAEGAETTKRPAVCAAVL

As for `Cc1cc2c(F)c(Oc3nc(Nc4cc(C5CC5)[nH]n4)cc(N4CCN(C)CC4)n3)cc(F)c2[nH]1` [NTW-3475], the Activity % on Haspin(h) was 96%; on CK2α2(h) it was 115%; on CDK2/cyclinA(h) it was 97%; on Src(1-530)(h) it was −2%; on IRAK1(h), 96%; at MSK2(h) it was 90%. For the same compound, the Activity % on Met(M1268T)(h) was found to be 22%; on GRK7(h) it was 97%; on CLK2(h) it was 90%; at PASK(h), 91%; on NEK3(h), 82%; at MAPK1(h) it was 128%. For the same compound, the Activity % at PKCα(h) is given as 95%; at EphB1(h), −1%; on CK1δ(h), 91%; on BRK(h), 33%; at PDK1(h), 103%; at DAPK2(h) it was 106%. The Activity % is listed as 96% at NLK(h); 100% at PKG1α(h); 91% on CHK2(R145W)(h); −3% on Ab1(H396P)(h); 20% on Met(D1246N)(h).
